Measurements as given in article PMC12250302, “Synthesis, Antimicrobial Activities, and Model of Action of Novel Tetralone Derivatives Containing Aminoguanidinium Moiety” (International Journal of Molecular Sciences, 2025).
Where two headings read alike, the source gives them in different places.

How the values were obtained:
Experiment in all cases: MIC and MBC testing, broth microdilution
E. faecium ATCC 35667 = assay type: cell-based, Enterococcus faecium; settings: E. faecium ATCC 35667; for MIC: 18 h
Excerpt: (§1) The minimum inhibitory concentrations (MICs) and minimum bactericidal concentrations (MBCs) of the synthesized compounds effective against ESKAPE strains, S. aureus clinical isolates, and MRSA were investigated by the broth dilution method. Levofloxacin is a broad-spectrum antibacterial agent that is widely used in the treatment of ESKAPE infections. Therefore, levofloxacin was selected as the positive control for the preliminary activity screening. DMSO (0.1%) was selected as the negative control.
(§2) The minimum inhibitory concentration (MIC) of all synthesized compounds was tested by the broth microdilution method. In brief, compounds dissolved in DMSO were diluted twice continuously in a 96-well plate with MH broth. The ESKAPE pathogens (E. coli ATCC 25922, S. aureus ATCC 29213, K. pneumoniae ATCC 700603, A. baumannii ATCC 19606, P. aeruginosa ATCC 27853, and E. faecium ATCC 35667), clinical S. aureus isolates (LMY45, LMY46, LMY47, and LMY48) and methicillin-resistant Staphylococcus aureus (MRSA-1 and MRSA-2) were cultured in MH broth to logarithmic growth phase and then diluted to 1 × 10^6 CFU/mL in MH broth. Subsequently, the diluted bacterial solution was mixed with the diluted compound solution in a 96-well plate and incubated at 37 °C for a duration of 18 h. The MIC of the compounds was recorded as the lowest concentration at which no visible growth was observed. […] Each concentration was replicated thrice.

S. aureus ATCC 29213 = assay type: cell-based, Staphylococcus aureus; settings: S. aureus ATCC 29213; for MIC: 18 h
Excerpt: as §1, §2

[1] = tested on: K. pneumoniae ATCC 700603; assay type: cell-based, Klebsiella pneumoniae; settings: Klebsiella pneumoniae; for MIC: ATCC700603, 18 h, read-out: MIC; for MBC: ATCC700603, read-out: MBC
Excerpt: as §1, §2

E. coli ATCC 25922 = assay type: cell-based, Escherichia coli
Excerpt: as §1, §2

P. aeruginosa ATCC 27853 = assay type: cell-based, Pseudomonas aeruginosa
Excerpt: as §1, §2

[2] = tested on: clinical S. aureus isolate LMY47; assay type: cell-based, Staphylococcus aureus; settings: LMY47; for MIC: 18 h
Description: (§3) Furthermore, the MBC values of the compounds were detected.
as §2, with “h.” for “h. The MIC of the compounds was recorded as the lowest concentration at which no visible growth was observed.”

[3] = tested on: clinical S. aureus isolate LMY46; assay type: cell-based, Staphylococcus aureus; settings: LMY46; for MIC: 18 h
Description: as §3
as §2, with “h.” for “h. The MIC of the compounds was recorded as the lowest concentration at which no visible growth was observed.”

MRSA-2 = assay type: cell-based, Staphylococcus aureus; settings: MRSA-2; for MIC: 18 h
Description: as §3
as §2, with “h.” for “h. The MIC of the compounds was recorded as the lowest concentration at which no visible growth was observed.”

[4] = tested on: clinical S. aureus isolate LMY45; assay type: cell-based, Staphylococcus aureus; settings: LMY45; for MIC: 18 h
Description: as §3
as §2, with “h.” for “h. The MIC of the compounds was recorded as the lowest concentration at which no visible growth was observed.”

[5] = tested on: clinical S. aureus isolate LMY48; assay type: cell-based, Staphylococcus aureus; settings: LMY48; for MIC: 18 h
Description: as §3
as §2, with “h.” for “h. The MIC of the compounds was recorded as the lowest concentration at which no visible growth was observed.”

MRSA-1 = assay type: cell-based, Staphylococcus aureus; settings: MRSA-1; for MIC: 18 h
Description: as §3
as §2, with “h.” for “h. The MIC of the compounds was recorded as the lowest concentration at which no visible growth was observed.”

A. baumannii ATCC 19606 = assay type: cell-based, Acinetobacter baumannii
Excerpt: as §1, §2

[6] = Enterococcus faecium, ATCC35667, read-out: MIC
[7] = Enterococcus faecium, ATCC35667, read-out: MBC
[8] = Staphylococcus aureus, ATCC29213, read-out: MIC
[9] = Staphylococcus aureus, ATCC29213, read-out: MBC
[10] = Escherichia coli, ATCC25922, 18 h, read-out: MIC
[11] = Escherichia coli, ATCC25922, read-out: MBC
[12] = Pseudomonas aeruginosa, ATCC27853, 18 h, read-out: MIC
[13] = Pseudomonas aeruginosa, ATCC27853, read-out: MBC
[14] = Staphylococcus aureus, read-out: MIC
[15] = Staphylococcus aureus, read-out: MBC
[16] = Acinetobacter baumannii, ATCC19606, 18 h, read-out: MIC
[17] = Acinetobacter baumannii, ATCC19606, read-out: MBC

[H]/N=C(\N)NN=C1CCCc2cc(OCc3ccccc3F)ccc21 [Compound 1A, (E)-2-(6-((2-fluorobenzyl)oxy)-3,4-dihydronaphthalen-1(2H)-ylidene)hydrazine-1-carboximidamide]
2 µg/mL: MIC [2, 14] | MIC [3, 14] | MIC (MRSA-2; [14]) | MIC [4, 14] | MIC [5, 14] | MIC (MRSA-1; [14])
16 µg/mL: MBC (E. faecium ATCC 35667; [7]) | MBC (S. aureus ATCC 29213; [9]) | MIC [1] | MBC [1] | MBC (MRSA-1; [15]) | MBC (A. baumannii ATCC 19606; [17])
> 32 µg/mL: MBC (P. aeruginosa ATCC 27853; [13])
32 µg/mL: MIC (P. aeruginosa ATCC 27853; [12])
8 µg/mL: MIC (E. coli ATCC 25922; [10]) | MBC (E. coli ATCC 25922; [11]) | MBC [2, 15] | MBC [3, 15] | MBC (MRSA-2; [15]) | MIC (A. baumannii ATCC 19606; [16])
4 µg/mL: MIC (E. faecium ATCC 35667; [6]) | MIC (S. aureus ATCC 29213; [8]) | MBC [4, 15] | MBC [5, 15]

[H]/N=C(\N)NN=C1CCCc2cc(OCc3cccc(F)c3)ccc21 [Compound 1B, (E)-2-(6-((3-fluorobenzyl)oxy)-3,4-dihydronaphthalen-1(2H)-ylidene)hydrazine-1-carboximidamide]
16 µg/mL: MBC (E. faecium ATCC 35667; [7]) | MBC (S. aureus ATCC 29213; [9]) | MIC [1] | MBC [1] | MBC [3, 15] | MBC (A. baumannii ATCC 19606; [17])
4 µg/mL: MIC (E. faecium ATCC 35667; [6]) | MIC (S. aureus ATCC 29213; [8]) | MBC [4, 15] | MIC [5, 14] | MBC [5, 15]
8 µg/mL: MIC (E. coli ATCC 25922; [10]) | MBC (E. coli ATCC 25922; [11]) | MBC [2, 15] | MBC (MRSA-2; [15]) | MBC (MRSA-1; [15]) | MIC (A. baumannii ATCC 19606; [16])
2 µg/mL: MIC [2, 14] | MIC [3, 14] | MIC (MRSA-2; [14]) | MIC [4, 14] | MIC (MRSA-1; [14])
32 µg/mL: MIC (P. aeruginosa ATCC 27853; [12]) | MBC (P. aeruginosa ATCC 27853; [13])

[H]/N=C(\N)NN=C1CCCc2cc(OCc3ccc(F)cc3)ccc21 [Compound 1C, (E)-2-(6-((4-fluorobenzyl)oxy)-3,4-dihydronaphthalen-1(2H)-ylidene)hydrazine-1-carboximidamide]
2 µg/mL: MIC [2, 14] | MIC [3, 14] | MIC [4, 14] | MIC (MRSA-1; [14])
16 µg/mL: MBC (E. faecium ATCC 35667; [7]) | MBC (S. aureus ATCC 29213; [9]) | MIC [1] | MBC [1] | MBC (MRSA-1; [15])
32 µg/mL: MIC (P. aeruginosa ATCC 27853; [12]) | MBC (P. aeruginosa ATCC 27853; [13])
4 µg/mL: MIC (E. faecium ATCC 35667; [6]) | MIC (S. aureus ATCC 29213; [8]) | MIC (MRSA-2; [14]) | MBC [4, 15] | MIC [5, 14] | MBC [5, 15]
8 µg/mL: MIC (E. coli ATCC 25922; [10]) | MBC (E. coli ATCC 25922; [11]) | MBC [2, 15] | MBC [3, 15] | MBC (MRSA-2; [15]) | MIC (A. baumannii ATCC 19606; [16]) | MBC (A. baumannii ATCC 19606; [17])

[H]/N=C(\N)NN=C1CCCc2cc(OCc3ccc(F)cc3F)ccc21 [Compound 1D, (E)-2-(6-((2,4-difluorobenzyl)oxy)-3,4-dihydronaphthalen-1(2H)-ylidene)hydrazine-1-carboximidamide]
2 µg/mL: MIC (S. aureus ATCC 29213; [8]) | MIC [2, 14] | MIC (MRSA-2; [14]) | MIC [4, 14] | MIC [5, 14] | MIC (MRSA-1; [14])
16 µg/mL: MBC (E. faecium ATCC 35667; [7]) | MIC [1] | MBC [1]
8 µg/mL: MBC (S. aureus ATCC 29213; [9]) | MIC (E. coli ATCC 25922; [10]) | MBC (E. coli ATCC 25922; [11]) | MBC [2, 15] | MIC (A. baumannii ATCC 19606; [16]) | MBC (A. baumannii ATCC 19606; [17])
4 µg/mL: MIC (E. faecium ATCC 35667; [6]) | MIC [3, 14] | MBC [4, 15] | MBC [5, 15]
32 µg/mL: MIC (P. aeruginosa ATCC 27853; [12]) | MBC (P. aeruginosa ATCC 27853; [13]) | MBC [3, 15] | MBC (MRSA-2; [15]) | MBC (MRSA-1; [15])

C[C@H]1COc2c(N3CCN(C)CC3)c(F)cc3c(=O)c(C(=O)O)cn1c23 [Levofloxacin, reference compound]
4 µg/mL: MBC [1]
≤ 1 µg/mL: MIC (E. faecium ATCC 35667; [6]) | MIC (S. aureus ATCC 29213; [8]) | MBC (S. aureus ATCC 29213; [9]) | MIC [1] | MIC (E. coli ATCC 25922; [10]) | MBC (E. coli ATCC 25922; [11]) | MIC (P. aeruginosa ATCC 27853; [12]) | MIC (A. baumannii ATCC 19606; [16])
2 µg/mL: MBC (E. faecium ATCC 35667; [7]) | MBC (P. aeruginosa ATCC 27853; [13]) | MBC (A. baumannii ATCC 19606; [17])

(E)-2-(6-(4-isopropylphenoxy)-3,4-dihydronaphthalen-1(2H)-ylidene)hydrazine-1-carboximidamide [Compound 1X]
4 µg/mL: MBC (E. faecium ATCC 35667) | MBC (S. aureus ATCC 29213) | MIC (E. coli ATCC 25922; 18 h) | MBC (MRSA-2) | MBC [4] | MIC (MRSA-1) | MIC (A. baumannii ATCC 19606; 18 h)
> 32 µg/mL: MBC (P. aeruginosa ATCC 27853)
32 µg/mL: MIC (P. aeruginosa ATCC 27853; 18 h)
8 µg/mL: MBC (E. coli ATCC 25922) | MBC [2] | MBC [5] | MBC (MRSA-1) | MBC (A. baumannii ATCC 19606)
1 µg/mL: MIC (MRSA-2)
2 µg/mL: MIC (E. faecium ATCC 35667) | MIC (S. aureus ATCC 29213) | MIC [2] | MBC [3] | MIC [3] | MIC [4] | MIC [5]
